T1: UVR8^D96N/D107N (constitutive monomer) (Arabidopsis thaliana, UniProt Q9FN03, D96N/D107N)
T1 sequence (Q9FN03 1-440 D96N/D107N): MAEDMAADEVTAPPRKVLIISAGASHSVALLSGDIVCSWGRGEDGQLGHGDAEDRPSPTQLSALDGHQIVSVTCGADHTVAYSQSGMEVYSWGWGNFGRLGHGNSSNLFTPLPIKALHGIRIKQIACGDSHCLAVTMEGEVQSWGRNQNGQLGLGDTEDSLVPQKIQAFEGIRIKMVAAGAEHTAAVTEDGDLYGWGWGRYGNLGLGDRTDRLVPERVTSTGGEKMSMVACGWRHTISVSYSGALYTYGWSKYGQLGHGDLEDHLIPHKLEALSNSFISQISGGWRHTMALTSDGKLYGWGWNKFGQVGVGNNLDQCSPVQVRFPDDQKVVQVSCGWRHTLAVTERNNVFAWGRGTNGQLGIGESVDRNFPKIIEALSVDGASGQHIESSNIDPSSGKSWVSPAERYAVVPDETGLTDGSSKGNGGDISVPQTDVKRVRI

T2: His-SUMO-UVR8 (wild-type UV … LOCUS8) (Arabidopsis thaliana), Q9FN03
T2 chain: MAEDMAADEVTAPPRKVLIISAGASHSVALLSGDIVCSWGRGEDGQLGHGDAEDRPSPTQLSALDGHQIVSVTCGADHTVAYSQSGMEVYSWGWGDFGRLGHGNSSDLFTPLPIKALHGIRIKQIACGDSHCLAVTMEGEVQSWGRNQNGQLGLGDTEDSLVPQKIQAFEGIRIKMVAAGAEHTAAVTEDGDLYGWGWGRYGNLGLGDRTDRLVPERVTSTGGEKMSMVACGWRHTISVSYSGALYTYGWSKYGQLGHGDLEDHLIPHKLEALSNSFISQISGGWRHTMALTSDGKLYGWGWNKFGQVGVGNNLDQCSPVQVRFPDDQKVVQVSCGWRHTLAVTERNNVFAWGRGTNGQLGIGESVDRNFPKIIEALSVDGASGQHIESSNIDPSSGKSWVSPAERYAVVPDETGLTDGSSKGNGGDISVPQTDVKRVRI

B1: His-SUMO-UVR8 (wild-type UV … LOCUS8), Q9FN03 1-440 (natural protein)
chain: MAEDMAADEVTAPPRKVLIISAGASHSVALLSGDIVCSWGRGEDGQLGHGDAEDRPSPTQLSALDGHQIVSVTCGADHTVAYSQSGMEVYSWGWGDFGRLGHGNSSDLFTPLPIKALHGIRIKQIACGDSHCLAVTMEGEVQSWGRNQNGQLGLGDTEDSLVPQKIQAFEGIRIKMVAAGAEHTAAVTEDGDLYGWGWGRYGNLGLGDRTDRLVPERVTSTGGEKMSMVACGWRHTISVSYSGALYTYGWSKYGQLGHGDLEDHLIPHKLEALSNSFISQISGGWRHTMALTSDGKLYGWGWNKFGQVGVGNNLDQCSPVQVRFPDDQKVVQVSCGWRHTLAVTERNNVFAWGRGTNGQLGIGESVDRNFPKIIEALSVDGASGQHIESSNIDPSSGKSWVSPAERYAVVPDETGLTDGSSKGNGGDISVPQTDVKRVRI

Legend:
[1] = molecular target: UVR8 (UV RESISTANCE LOCUS8) (Arabidopsis thaliana, UniProt Q9FN03); test: MST; format: binding
[2] = molecular target: T1, UVR8^D96N/D107N (constitutive monomer); test: nanoDSF Tm increase with purified recombinant protein; format: binding
[3] = molecular target: T2, His-SUMO-UVR8 (wild-type UV … LOCUS8) …; test: SEC; conditions: remark: other sources report otherwise

Molecule | Kd [1] [µM] | nanoDSF Tm increase with purified recombinant protein [2] | stoichiometry N [3]
O=C(/C=C/c1ccc(O)cc1)c1c(O)cc(O)cc1O [NGC, naringenin chalcone] | ~12 | significant increase in Tm was observed when NGC was incubated with the three monomeric forms | –
B1 | – | – | 2
